Data set [1] concerns the target T1, human butyrylcholinesterase (hBuChE) (Homo sapiens, UniProt P06276). The conditions noted are these: previously isolated narcikachnine-type alkaloids; cited from earlier work.
The subject of data set [2] is POP. To be noted: previously isolated narcikachnine-type alkaloids; cited from earlier work.
For data set [3] the following is noted: indicated centrally active crossing of the BBB via passive diffusion; cited from earlier work.
For data set [4], the target named is T1, human butyrylcholinesterase (hBuChE). In words: hBuChE inhibition assay (modified Ellman method, BuTChI substrate). It is filed as biochemical. The conditions noted are these: for IC50: mean ± SEM of three independent measurements, each in triplicate; for % Inhibition hBuChE ± SEM / inhibition at 100 µM: tested at 100 µM compound concentration; for % Inhibition hBuChE ± SEM: 100 µM; for inhibition at 100 µM: read-out: % Inhibition hBuChE ± SEM. (In general: Ellman's reagent forms a yellow product with free thiols.)

Molecules are shown by their SMILES. Read-outs that look alike come from different tables or passages of the source.

T1 sequence (P06276 29-602): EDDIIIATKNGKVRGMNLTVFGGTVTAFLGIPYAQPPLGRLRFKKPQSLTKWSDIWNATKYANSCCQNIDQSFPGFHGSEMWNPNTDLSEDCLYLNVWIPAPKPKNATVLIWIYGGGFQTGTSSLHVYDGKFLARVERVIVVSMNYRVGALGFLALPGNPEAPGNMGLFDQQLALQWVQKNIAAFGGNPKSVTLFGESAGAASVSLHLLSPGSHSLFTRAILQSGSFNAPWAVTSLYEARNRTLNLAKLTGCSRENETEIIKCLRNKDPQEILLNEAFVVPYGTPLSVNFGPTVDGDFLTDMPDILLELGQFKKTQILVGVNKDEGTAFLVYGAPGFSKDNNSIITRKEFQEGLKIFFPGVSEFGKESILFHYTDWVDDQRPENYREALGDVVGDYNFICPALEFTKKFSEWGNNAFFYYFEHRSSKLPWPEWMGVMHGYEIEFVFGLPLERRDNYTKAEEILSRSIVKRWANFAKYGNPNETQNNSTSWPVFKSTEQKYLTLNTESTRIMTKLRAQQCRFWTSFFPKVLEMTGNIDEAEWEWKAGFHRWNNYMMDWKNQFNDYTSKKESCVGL

The IC50 is the concentration at which inhibition is half-maximal. Turning to `COc1cc(-c2cccc3c2N(C)CC3)c(CN2CC[C@@]34C=C[C@H](O)C[C@@H]3Oc3c(OC)ccc(c34)C2)c(OC)c1OC` [narcieliine], the figures for the IC50 in data set [1] and in data set [2] were 1.3 ± 0.3 µM and 163 ± 13 µM, respectively. Moreover, in data set [3], the “in vitro permeability (Pe)” value is listed as 14.1 ± 1.0 × 10^−6 cm·s^−1.
Turning to `COc1ccc2c3c1OC1CC(O)CCC31CCN(Cc1cc3c(cc1-c1cccc4ccn(C)c14)OCO3)C2` (stereo not shown) [narcipavline], in data set [1], the IC50 was 24.4 ± 1.2 µM.
In the case of `COc1ccc2c3c1OC1CC(=O)CCC31CCN(Cc1cc3c(cc1-c1cccc4c1N(C)CC4)OCO3)C2` (stereo not shown) [narcimatuline], the half-maximal inhibitory concentration (IC50) in data set [1] was 5.9 ± 0.2 µM; in data set [2], 29.2 ± 1 µM.
In general, inhibition refers to the share of the control response that was lost under treatment. Take `COc1cc2c(cc1O)[C@@H](O)O[C@@H]1CC=C3CCN(C)[C@H]3[C@H]21` [9-O-demethyllycorenine (1), 9-O-demethyllycorenine]: in data set [4], the IC50 was above 100 µM, the “% Inhibition hBuChE ± SEM” value is “almost devoid of cholinesterase inhibitory activity” and the inhibition at 100 µM was determined as 30.2 ± 0.8%.
As to `COc1cc(-c2cccc3c2N(C)CC3)c(CN2CC[C@@]34C=C[C@H](O)C[C@@H]3Oc3c(OC)ccc(c34)C2)cc1O` [narciabduliine (2), narciabduliine], in data set [4], the IC50 was 3.44 ± 0.02 µM, the “% Inhibition hBuChE ± SEM” value is 94.1 ± 0.2% and the inhibition at 100 µM is above 90%.
Regarding `COc1ccc2c3c1O[C@H]1C[C@@H](O)C=C[C@@]31CCN(C)C2` [galantamine], the inhibition at 100 µM in data set [4] came to 68.2 ± 1.2%.

Values taken from article PMC7956344, “Structure Elucidation and Cholinesterase Inhibition Activity of Two New Minor Amaryllidaceae Alkaloids” (Molecules, 2021).
